We go through 3 compounds from patent publication US20120301433A1, “BACTERIOPHAGES EXPRESSING AMYLOID PEPTIDES AND USES THEREOF” (priority 2009, published 2012).

In assay [1] the target is T1, CsgA (Escherichia coli, UniProt P28307). The format is biochemical. As to conditions: CsgA:inhibitor ratios, FIG. 9.
The target in assay [2] is T1, CsgA. As to conditions: 20-residue peptides on array.
Assay [3] deals with T1, CsgA. As to conditions: ThT fluorescence, FIG. 7E.

T1 sequence (P28307 21-151): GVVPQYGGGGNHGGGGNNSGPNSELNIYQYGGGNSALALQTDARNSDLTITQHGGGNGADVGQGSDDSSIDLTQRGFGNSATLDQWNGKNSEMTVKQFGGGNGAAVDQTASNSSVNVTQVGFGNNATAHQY

Take `C[C@@H]1[C@H](O)[C@@H](C)/C=C/C=C/C=C/C=C/C=C/C=C/C=C/[C@H](O[C@@H]2O[C@H](C)[C@@H](O)[C@H](N)[C@@H]2O)C[C@@H]2O[C@](O)(C[C@@H](O)C[C@@H](O)[C@H](O)CC[C@@H](O)C[C@@H](O)CC(=O)O[C@H]1C)C[C@H](O)[C@H]2C(=O)O` [AmphB, Amphotericin B]: the “effect of small molecule inhibitors on curli amyloid fiber formation (in words)” value at CsgA [1] is listed as “does not inhibit Curli assembly”.

`COc1ccc(Nc2cc3c(cc2Nc2ccc(OC)cc2)C(=O)NC3=O)cc1` [DAPH-12]: the “effect of small molecule inhibitors on curli amyloid fiber formation (in words)” value on CsgA [1] was “secetively inhibits Curli assembly”.

On to GTQKTAIVVQRQSQMAIRVT [CsgB130-149], for which, at CsgA [2], the “fluorescence of labelled CsgA bound to peptide spot (in words)” value is “strongest signal”. On CsgA [3], the “nucleation of CsgA fiber assembly by plate-bound peptide (in words)” value is recorded as “facilitated CsgA amyloid fiber formation with first-order kinetics”.
